Data from US6818741B2, “Alpha-fetoprotein peptides and uses therof” (CLF Medical Technology Acceleration Program, Inc., priority 2000, dated 2004).
“Also recorded” adds a separate entry of the source. Square brackets hold non-standard residues; d marks the D form. Ends that are not written are not given here. Peptide text beside a SMILES is read from it. Hyp = O=C(O)[C@@H]1C[C@@H](O)CN1

Key:
[1] = Toxicity to mice in the uterine growth assay; assay type: in vivo; details: even at an effective dose of 1 mg/mouse
Description: (§1) Immature Mouse Uterine Growth Assay.

[2] = tested on: MCF-7 human breast cancer xenografts; assay: Human breast cancer xenograft assay, MCF-7; assay type: in vivo; details: E2 implant; peptide 1 μg i.p. twice a day; tamoxifen 50 μg i.p. once a day; 30-day observation; vs E2 alone
Procedure: (§2) Tumors were implanted as described in Materials and Methods. […] There was a minimum of 5 mice per group. (FIG. 9a) MCF-7 tumors.
Human Breast Cancer Xenograft Assay. A bioassay for anti-breast cancer activity was performed according to Bennett et al. (23;24). Confluent MCF-7 human breast cancer cells were trypsinized into suspension and pelleted by centrifugation at 200× g. The pellet was then solidified into a fibrin clot by exposing it to 10 μl of fibrinogen (50 mg/ml) and 10 μl of thrombin (50 units/ml). The solid mass of MCF-7 cells was then cut into pieces 1.5 mm in diameter. A tumor segment of ˜1.5 mm in diameter was implanted under the kidney capsule of an immunodeficient ICR-SCID male mouse (Taconic Farms) that weighed about 25 g. Estrogen supplementation was accomplished by s.c. implantation of a silastic tubing capsule containing solid E2 inserted on the day of tumor implantation. Peptide was injected i.p. every twelve hours at a dose of 1 μg per mouse. Tumor growth was monitored during survival laparotomy at 10-day intervals by measurement of the diameters of the short (d) and long axes (D) of each tumor, using a dissecting microscope equipped with an ocular micrometer. Tumor volumes were calculated using the formula (π/6)(d)^2D, assuming the tumor shape to be an ellipsoid of revolution around its long axis (D). There were five to seven replicate mice included in each treatment group. Mean tumor volume±standard error in each group was calculated for display of growth curves. Significance of differences between groups were tested using the one-sided Wilcoxon Sum of Ranks Test.

[3] = tested on: E2-stimulated growth of immature mouse uterus; assay: Immature mouse uterine growth assay (anti-estrotrophic activity); assay type: in vivo; details: for inhibition of the uterotrophic effect of estradiol (normalized uterine weight, E2+ Pep vs E2): Pep i.p. one hour before E2, uteri weighed 22 hours later; for dose of maximal (optimal) inhibition of estrogen-stimulated growth of mouse uterus: i.p., dose-response; for effect of 4 M urea treatment on biological activity of stored peptide: stored (aged) peptide, brief treatment with 4 M urea; for biological activity of gel-filtration fraction: aged peptide, 1 μg i.p.
Description: (§3) Twenty-two hours later, uteri were dissected and weighed. […] (FIG. 1a) Peptide dose-response.
as §1

[4] = Shelf-life (storage) studies of lyophilized peptide, read out in the immature mouse uterine growth assay; assay type: physicochemical; details: for shelf-life: storage in the lyophilized state, tested in immature mouse uterine growth assay; for time in storage after which anti-estrotrophic activity was lost (diminished to insignificant levels): lyophilized, −20° C.
Description: as §3, §1

estrogen receptor = biological target: T1, estrogen receptor (Oryctolagus cuniculus, UniProt G1SML6); assay: Assessment of estrogen receptor antagonism ([3H]E2 binding, uterine cytosol); parameters: species or system rabbit; details: for interference with E2 binding to its receptor: peptide concentration range 10^−10 M to 10^−5 M
T1 sequence (G1SML6 1-598): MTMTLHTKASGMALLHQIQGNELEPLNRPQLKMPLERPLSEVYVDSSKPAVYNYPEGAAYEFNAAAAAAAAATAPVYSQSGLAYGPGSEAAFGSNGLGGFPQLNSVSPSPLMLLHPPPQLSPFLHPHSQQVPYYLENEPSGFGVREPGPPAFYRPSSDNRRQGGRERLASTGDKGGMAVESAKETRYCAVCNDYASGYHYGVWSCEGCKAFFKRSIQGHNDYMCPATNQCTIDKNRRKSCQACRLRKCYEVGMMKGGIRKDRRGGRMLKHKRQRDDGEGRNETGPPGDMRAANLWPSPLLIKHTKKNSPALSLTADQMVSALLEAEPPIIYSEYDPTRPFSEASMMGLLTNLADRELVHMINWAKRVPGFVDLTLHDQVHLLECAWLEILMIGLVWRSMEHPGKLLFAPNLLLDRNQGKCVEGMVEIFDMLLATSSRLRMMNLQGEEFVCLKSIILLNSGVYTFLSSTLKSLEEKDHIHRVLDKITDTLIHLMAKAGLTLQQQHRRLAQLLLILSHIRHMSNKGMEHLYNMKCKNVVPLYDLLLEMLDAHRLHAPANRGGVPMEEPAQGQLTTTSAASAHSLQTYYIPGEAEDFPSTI
Procedure: Assessment of Estrogen Receptor Antagonism. Commercially obtained rabbit uteri (Pel-Freez Biological, Rogers, Ark.) were used as a source of estrogen receptor. […] Total count tubes received 20 μl of [^3H] estradiol and 180 μl of assay buffer.

[5] = tested on: T47D human breast cancer xenografts; assay: Human breast cancer xenograft assay, T47D; assay type: in vivo; details: E2 supplementation; 30-day observation; vs E2 alone
[6] = tamoxifen users; cited from earlier work
[7] = tested on: estrogen-receptor-negative MDA-MB-231 human breast cancer xenografts; assay: Human breast cancer xenograft assay, MDA-MB-231; assay type: in vivo; details: ER− tumor, 30 day observation
[8] = tested on: MCF-7/Tam human breast cancer xenografts; assay: Human breast cancer xenograft assay, tamoxifen-resistant MCF-7 subline; assay type: in vivo; details: E2 implant; peptide 1 μg i.p. twice a day; tamoxifen 50 μg i.p. once a day; day 30; vs E2 alone
Procedure: as §2
Cell Lines. T47D and MDA-MB-231 human breast cancer cell lines were purchased from the American Type Culture Collection (Manassas, Va.). Growth medium for T47D cells consisted of RPMI 1640 (Life Technologies, Germantown, Md.) supplemented with 10% fetal bovine serum (Life Technologies) and 8 μg/ml bovine insulin (Sigma, St. Louis, Mo.). Growth medium for MDA-MB-231 consisted of Dulbecco's Modified Eagle Medium (Life Technologies) supplemented with L-glutamine (2 mM), non-essential amino acids (1%, Life Technologies) and bovine insulin (1 μg/ml). The MCF-7 cell line was obtained from Dr. Alberto C. Baldi, Institute of Experimental Biology and Medicine, Buenos Aires, Argentina, and was maintained as previously describedby Gierthy et al. (1991).
Human Breast Cancer Xenograft Assay. […] Tumor growth was monitored during survival laparotomy at 10-day intervals by measurement of the diameters of the short (d) and long axes (D) of each tumor, using a dissecting microscope equipped with an ocular micrometer. Tumor volumes were calculated using the formula (π/6)(d)^2D, assuming the tumor shape to be an ellipsoid of revolution around its long axis (D). […] Mean tumor volume±standard error in each group was calculated for display of growth curves. […]

[9] = tested on: growth of the immature mouse uterus; assay: Uterotrophic effect of test agent alone on immature mouse uterus; assay type: in vivo; details: even at a dose of 10 μg/mouse
Procedure: Various doses indicated on the abscissa of each test agent were injected i.p. Twenty-two hours later uteri were harvested and weighed.
Immature Mouse Uterine Growth Assay. A bioassay for anti-estrotrophic activity was performed using an immature mouse uterine growth assay (22). Swiss/Webster female mice, 6-8 g in body weight (13-15 days old), were obtained from Taconic Farms (Germantown, N.Y.). […] In a typical experiment, each group received two sequential intraperitoneal injections spaced one hour apart. Test material or vehicle control for that material was contained in the first injectant. Estradiol (E2) or vehicle control for E2 was contained in the second injectant. Twenty-two hours after the second injection, uteri were dissected, trimmed free of mesenteries, and immediately weighed. The uterine weights were normalized to mouse body weights (mg uterine weight/g of body weight) to compensate for differences in body weight among litters of the same age. Experiments employed a minimum of five mice per group, and the mean normalized uterine weight±standard error for each group was calculated. Percent growth inhibition in a test group was calculated from the normalized uterine wet weights as described below.

[10] = tested on: tamoxifen-stimulated growth of immature mouse uterus; assay: Inhibition of tamoxifen-stimulated growth of immature mouse uterus; assay type: in vivo; details: Pep i.p. one hour before Tam, uteri weighed 22 hours later
Description: as §1

[11] = Preliminary pharmacokinetic studies in mice; assay type: in vivo, mouse

CSCC[C@@H]1NC(=O)[C@H](CCC(=O)O)NC(=O)[C@H](CCC(N)=O)NC(=O)CNC(=O)[C@@H]2C[C@@H](O)CN2C(=O)[C@H](CC(N)=O)NC(=O)[C@H](C(C)C)NC(=O)[C@@H]2C[C@@H](O)CN2C(=O)[C@H]([C@@H](C)O)NC1=O [cyclo-(SEQ ID NO: 5: EMTOVNOGQ), cyclo-(EMTOVNOGQ)] (cyclo(EMT[Hyp]VN[Hyp]GQ))
toxicity to the mice [1]: no evidence of toxicity | effect on estrogen-dependent growth (tumor volume) of MCF-7 xenografts [2]: significantly inhibited | anti-estrotrophic activity ([3]; doses higher than 10 μg/mouse): retained significant anti-estrotrophic activity | shelf-life [4]: indefinite shelf-life

O=C(c1ccc(OCCN2CCCCC2)cc1)c1c(-c2ccc(O)cc2)sc2cc(O)ccc12 [raloxifene, reference compound]
inhibition of estradiol binding to its receptor (estrogen receptor; concentration of 100 nM): completely inhibited

CC/C(=C(\c1ccccc1)c1ccc(OCCN(C)C)cc1)c1ccccc1 [tamoxifen, reference compound]
effect on growth (tumor volume) of T47D xenografts [5]: prevented growth | users in whom uterine cancer is caused (side effect) [6]: 0.2% | effect on growth (tumor volume) of MDA-MB-231 xenografts [7]: did not affect the growth | effect on estrogen-dependent growth (tumor volume) of MCF-7 xenografts [2]: no increase in tumor volume | effect on growth (tumor volume) of tamoxifen-resistant MCF-7 subline xenografts [8]: only minimally effective

EMTOVNOG (EMT[Hyp]VN[Hyp]G) [SEQ ID NO: 4: EMTOVNOG, linear octapeptide where O is hydroxyproline (4-hydroxyproline for both prolines)]
effect on growth (tumor volume) of T47D xenografts [5]: completely prevented tumor growth | uterotrophic effect [9]: no uterotrophic effect whatsoever | effect on growth (tumor volume) of MDA-MB-231 xenografts [7]: no effect | effect on growth (tumor volume) of MDA-MB-231 xenografts ([7]; listed as AFP-derived peptide): no differences in tumor volumes | interference with E2 binding to its receptor (estrogen receptor): no interference | interference with E2 binding to its receptor (estrogen receptor; listed as linear hydroxyproline-containing octapeptide): did not interfere | effect on estrogen-dependent growth (tumor volume) of MCF-7 xenografts [2]: inhibited; also recorded: no significant increase in tumor volume | inhibition of the uterotrophic effect of estradiol (normalized uterine weight, E2+ Pep vs E2) [3]: inhibited | inhibition of the uterotrophic effect of estradiol (normalized uterine weight, E2+ Pep vs E2) ([3]; listed as AFP-derived peptide): significantly different | dose of maximal (optimal) inhibition of estrogen-stimulated growth of mouse uterus [3]: 1 μg/mouse | shelf-life [4]: indefinite shelf-life | effect on growth (tumor volume) of tamoxifen-resistant MCF-7 subline xenografts [8]: completely stopped the growth | inhibition of tamoxifen's uterotrophic effect (normalized uterine weight, Tam+ Pep vs Tam) [10]: significantly inhibited | inhibition of tamoxifen's uterotrophic effect (normalized uterine weight, Tam+ Pep vs Tam) ([10]; listed as AFP-derived peptide): significantly different | inhibition of tamoxifen's uterotrophic effect (normalized uterine weight, Tam+ Pep vs Tam) ([10]; listed as Peptide): inhibited | biological half-life [11]: two to three

EMTPVNPG [SEQ ID NO: 6: EMTPVNPG, native AFP-derived octapeptide, amino acids 472-479 of alpha-fetoprotein, reference compound]
dose of maximal (optimal) inhibition of estrogen-stimulated growth of mouse uterus [3]: ~1 μg/mouse | effect of 4 M urea treatment on biological activity of stored peptide [3]: regenerated | effect of excipient on shelf-life of the peptide ([4]; excipient: dodecylmaltoside): significantly prolonged shelf-life | effect of excipient on shelf-life of the peptide ([4]; excipient: mannitol): significantly prolonged shelf-life | effect of excipient on shelf-life of the peptide ([4]; excipient: sucrose): did not do so | time in storage after which anti-estrotrophic activity was lost (diminished to insignificant levels) [4]: four to five

EMTPVNPGQ [SEQ ID NO: 7: EMTPVNPGQ, linear nonapeptide, glutamine residue added to the C-terminus of the native octapeptide]
dose of maximal (optimal) inhibition of estrogen-stimulated growth of mouse uterus [3]: 1 μg/mouse

QMTPVNPG [SEQ ID NO: 2: QMTPVNPG, linear octapeptide analog of the AFP octapeptide, N-terminal glutamic acid substituted with glutamine]
biological activity of gel-filtration fraction ([3]; higher molecular weight fraction): biologically inactive | biological activity of gel-filtration fraction ([3]; lower molecular weight fraction): active | dose of maximal (optimal) inhibition of estrogen-stimulated growth of mouse uterus [3]: 1 μg/mouse | effect of 4 M urea treatment on biological activity of stored peptide [3]: restored its biological activity | biological activity of aged peptide ([3]; stored in the lyophilized state at −20° C. for over one year): completely biologically inactive | time in storage after which anti-estrotrophic activity was lost (diminished to insignificant levels) [4]: five and four to five | shelf-life [4]: stored somewhat better than the native octapeptide

cyclo-(EMTPVNPGQ) (head-to-tail cyclization) [head-to-tail cyclized nonapeptide]
inhibition of estrogen-stimulated growth of immature mouse uterus ([3]; at the optimal dose of the linear peptides (1 μg)): very active | effect of 4 M urea treatment on biological activity of stored peptide [3]: restored the optimal biological activity | shelf-life [4]: somewhat extended but still rather limited shelf-life | biological activity after prolonged storage ([4]; storage of six months): significant, albeit not optimal, biological activity
